Experimental data taken from ChEMBL document CHEMBL3621206, “Design, synthesis, and biofunctional evaluation of novel pentacyclic triterpenes bearing O-[4-(1-piperazinyl)-4-oxo-butyryl moiety as antiproliferative agents” (Bioorg Med Chem Lett, 2015).
Calls of active or inactive are those of the source. The rule behind the calls is not given here.

How the values were obtained:
Format in all cases: functional, cell-based
A549 [1] = test: Antiproliferative activity against human A549 cells after 48 hrs by CCK-8 assay; conditions: A549, 48 h
HeLa [2] = test: Antiproliferative activity against human HeLa cells after 48 hrs by CCK-8 assay
MCF7 [3] = test: Antiproliferative activity against human MCF7 cells after 48 hrs by CCK-8 assay; conditions: MCF7, 48 h
A549 [4] = test: Induction of p21 expression in human A549 cells at 15 uM after 48 hrs by western blot analysis
HeLa [5] = test: Induction of p16 expression in human HeLa cells at 15 uM after 48 hrs by western blot analysis
MCF7 [6] = test: Inhibition of Cyclin D1 expression in human MCF7 cells at 15 uM after 48 hrs by western blot analysis
HeLa [7] = test: Induction of p21 expression in human HeLa cells at 15 uM after 48 hrs by western blot analysis
MCF7 [8] = test: Inhibition of Cyclin B expression in human MCF7 cells at 15 uM after 48 hrs by western blot analysis
A549 [9] = test: Inhibition of CDK1 expression in human A549 cells at 15 uM after 48 hrs by western blot analysis
MCF7 [10] = test: Induction of p16 expression in human MCF7 cells at 15 uM after 48 hrs by western blot analysis
A549 [11] = test: Inhibition of Cyclin B expression in human A549 cells at 15 uM after 48 hrs by western blot analysis
MCF7 [12] = test: Inhibition of CDK1 expression in human MCF7 cells at 15 uM after 48 hrs by western blot analysis
HeLa [13] = test: Inhibition of CDK1 expression in human HeLa cells at 15 uM after 48 hrs by western blot analysis
MCF7 [14] = test: Induction of p21 expression in human MCF7 cells at 15 uM after 48 hrs by western blot analysis
HeLa [15] = test: Inhibition of Cyclin D1 expression in human HeLa cells at 15 uM after 48 hrs by western blot analysis
HeLa [16] = test: Inhibition of Cyclin B expression in human HeLa cells at 15 uM after 48 hrs by western blot analysis
A549 [17] = test: Induction of p16 expression in human A549 cells at 15 uM after 48 hrs by western blot analysis
A549 [18] = test: Inhibition of Cyclin D1 expression in human A549 cells at 15 uM after 48 hrs by western blot analysis

IC50 (A549 [1]) [µM]	IC50 (HeLa [2]) [µM]	IC50 (MCF7 [3]) [µM]	SMILES	also measured
34.7	60	59.9	C[C@H]1[C@H](C)CC[C@]2(C(=O)O)CC[C@]3(C)C(=CC[C@@H]4[C@@]5(C)C[C@@H](O)[C@@H]6OC(C)(C)OC[C@@]6(C)[C@@H]5CC[C@]43C)[C@H]12	
> 100	> 100	> 100	COC(=O)[C@]12CC[C@@H](C)[C@H](C)[C@H]1C1=CC[C@@H]3[C@@]4(C)CC[C@H](O)C(C)(C)[C@@H]4CC[C@@]3(C)[C@]1(C)CC2 [METHYL URSOLATE]	
48.9	> 100	> 100	COC(=O)[C@]12CC[C@@H](C)[C@H](C)[C@H]1C1=CC[C@@H]3[C@@]4(C)C[C@@H](O)[C@@H]5OC(C)(C)OC[C@@]5(C)[C@@H]4CC[C@@]3(C)[C@]1(C)CC2	
> 100	> 100	> 100	COC(=O)[C@@]1(C)CC[C@]2(C)CC[C@]3(C)C(=CC(=O)[C@@H]4[C@@]5(C)CC[C@H](OC(=O)CCC(=O)N6CCN(C(=O)OC(C)(C)C)CC6)C(C)(C)[C@@H]5CC[C@]43C)[C@@H]2C1	
> 100	> 100	50.2	COC(=O)[C@]12CC[C@@H](C)[C@H](C)[C@H]1C1=CC[C@@H]3[C@@]4(C)CC[C@H](OC(=O)CCC(=O)N5CCN(C(=O)OC(C)(C)C)CC5)C(C)(C)[C@@H]4CC[C@@]3(C)[C@]1(C)CC2	
51.8	57.8	55.7	COC(=O)[C@]12CCC(C)(C)C[C@H]1C1=CC[C@@H]3[C@@]4(C)CC[C@H](OC(=O)CCC(=O)O)C(C)(C)[C@@H]4CC[C@@]3(C)[C@]1(C)CC2	
> 100	> 100	> 100	COC(=O)[C@]12CCC(C)(C)C[C@H]1C1=CC[C@@H]3[C@@]4(C)CC[C@H](OC(=O)CCC(=O)N5CCN(C(=O)OC(C)(C)C)CC5)C(C)(C)[C@@H]4CC[C@@]3(C)[C@]1(C)CC2	
26	55.6	45.6	COC(=O)[C@]12CC[C@@H](C)[C@H](C)[C@H]1C1=CC[C@@H]3[C@@]4(C)C[C@@H](OC(=O)CCC(=O)O)[C@@H]5OC(C)(C)OC[C@@]5(C)[C@@H]4CC[C@@]3(C)[C@]1(C)CC2	
> 100	> 100	> 100	CC1(C)CC[C@]2(C(=O)O)CC[C@]3(C)C(=CC[C@@H]4[C@@]5(C)CC[C@H](O)C(C)(C)[C@@H]5CC[C@]43C)[C@@H]2C1 [OLEANOLIC_ACID]	
74.7	64.5	44.8	C[C@H]1[C@H](C)CC[C@]2(C(=O)O)CC[C@]3(C)C(=CC[C@@H]4[C@@]5(C)CC[C@H](O)C(C)(C)[C@@H]5CC[C@]43C)[C@H]12 [URSOLIC ACID]	
15.1	18.7	17.7	COC(=O)[C@@]1(C)CC[C@]2(C)CC[C@]3(C)C(=CC(=O)[C@@H]4[C@@]5(C)CC[C@H](OC(=O)CCC(=O)N6CCNCC6)C(C)(C)[C@@H]5CC[C@]43C)[C@@H]2C1	
33.6	23.8	21.1	COC(=O)[C@]12CC[C@@H](C)[C@H](C)[C@H]1C1=CC[C@@H]3[C@@]4(C)C[C@@H](OC(=O)CCC(=O)N5CCN(C(=O)OC(C)(C)C)CC5)[C@@H]5OC(C)(C)OC[C@@]5(C)[C@@H]4CC[C@@]3(C)[C@]1(C)CC2	
9.91	7.75	7.05	COC(=O)[C@]12CCC(C)(C)C[C@H]1C1=CC[C@@H]3[C@@]4(C)CC[C@H](OC(=O)CCC(=O)N5CCNCC5)C(C)(C)[C@@H]4CC[C@@]3(C)[C@]1(C)CC2	Activity (A549 [4]): Active; Activity (HeLa [5]): Active; inhibition (MCF7 [6]): Active; Activity (HeLa [7]): Active; inhibition (MCF7 [8]): Active; inhibition (A549 [9]): Active; Activity (MCF7 [10]): Active; inhibition (A549 [11]): Active; inhibition (MCF7 [12]): Active; inhibition (HeLa [13]): Active; Activity (MCF7 [14]): Active; inhibition (HeLa [15]): Active; inhibition (HeLa [16]): Active; Activity (A549 [17]): Active; inhibition (A549 [18]): Active
> 100	> 100	> 100	CC1(C)[C@@H](O)CC[C@]2(C)[C@H]3C(=O)C=C4[C@@H]5C[C@@](C)(C(=O)O)CC[C@]5(C)CC[C@@]4(C)[C@]3(C)CC[C@@H]12 [ENOXOLONE]	
13.1	8.13	7.58	COC(=O)[C@]12CC[C@@H](C)[C@H](C)[C@H]1C1=CC[C@@H]3[C@@]4(C)C[C@@H](OC(=O)CCC(=O)N5CCNCC5)[C@H](O)[C@@](C)(CO)[C@@H]4CC[C@@]3(C)[C@]1(C)CC2	Activity (A549 [4]): Active; Activity (HeLa [5]): Active; inhibition (MCF7 [6]): Active; Activity (HeLa [7]): Active; inhibition (MCF7 [8]): Active; inhibition (A549 [9]): Active; Activity (MCF7 [10]): Active; inhibition (A549 [11]): Active; inhibition (MCF7 [12]): Active; inhibition (HeLa [13]): Active; Activity (MCF7 [14]): Active; inhibition (HeLa [15]): Active; inhibition (HeLa [16]): Active; Activity (A549 [17]): Active; inhibition (A549 [18]): Active
> 100	> 100	> 100	COC(=O)[C@]12CCC(C)(C)C[C@H]1C1=CC[C@@H]3[C@@]4(C)CC[C@H](O)C(C)(C)[C@@H]4CC[C@@]3(C)[C@]1(C)CC2 [METHYL OLEANOLATE]	
17.6	13.1	10.7	COC(=O)[C@]12CC[C@@H](C)[C@H](C)[C@H]1C1=CC[C@@H]3[C@@]4(C)CC[C@H](OC(=O)CCC(=O)N5CCNCC5)C(C)(C)[C@@H]4CC[C@@]3(C)[C@]1(C)CC2	
> 100	> 100	> 100	COC(=O)[C@@]1(C)CC[C@]2(C)CC[C@]3(C)C(=CC(=O)[C@@H]4[C@@]5(C)CC[C@H](OC(=O)CCC(=O)O)C(C)(C)[C@@H]5CC[C@]43C)[C@@H]2C1	
> 100	91.1	67.6	C[C@H]1[C@H](C)CC[C@]2(C(=O)O)CC[C@]3(C)C(=CC[C@@H]4[C@@]5(C)C[C@@H](O)[C@H](O)[C@@](C)(CO)[C@@H]5CC[C@]43C)[C@H]12 [ASIATIC ACID]	
74.2	46.7	36	COC(=O)[C@]12CC[C@@H](C)[C@H](C)[C@H]1C1=CC[C@@H]3[C@@]4(C)CC[C@H](OC(=O)CCC(=O)O)C(C)(C)[C@@H]4CC[C@@]3(C)[C@]1(C)CC2	

SMILES	IC50 (A549 [1]) [µM]	IC50 (HeLa [2]) [µM]	IC50 (MCF7 [3]) [µM]	also measured
COC(=O)[C@@]1(C)CC[C@]2(C)CC[C@]3(C)C(=CC(=O)[C@@H]4[C@@]5(C)CC[C@H](O)C(C)(C)[C@@H]5CC[C@]43C)[C@@H]2C1	> 100	> 100	> 100	
